≈ marks a conversion by molar mass, not a printed value. Starred links: 1 amine or outer side, 2 acyl side, 3 side chain; linkers in the order of their positions; H or OH if unused. Positions of bridges follow the written chain, without caps; N, C: chain ends. Residues, ends and D or L forms follow the SMILES beside them. 2,2'Bipyridine(5,5'-diCH2) = c1cc(-c2ccc(C[*:2])cn2)ncc1C[*:1]; Naphthalene(2,6-diCH2) = c1cc2cc(C[*:2])ccc2cc1C[*:1]; mXylylene = c1cc(C[*:1])cc(C[*:2])c1
Tests used:
[1] = 48 hours cytotoxicity assay (CellTiter-Glo), liver toxicity; format: cell-based, human
Method in brief: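 Viability from CellTiter-Glo luminescence after StAMP dilution series or vehicle acted on HepG2 cells for 48 h at 37 °C. Cells were grown in EMEM plus 10% FBS and given 4 h to attach before dosing.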

[2] = test system: Pseudomonas aeruginosa (P. aeruginosa); format: cell-based; conditions: microbroth dilution, 20-24 hours at 37° C.
Experimental: (§1) Antimicrobial Activity Assay: The following microbroth dilution protocol was adapted from CLSI to determine the minimum inhibitory concentration (MIC) of StAMPs. Briefly, Mueller-Hinton broth (MHB) or cation-adjusted Mueller-Hinton broth (MHB II) was prepared and autoclaved. Then, a colony of bacterial cells was picked and grown overnight in broth at 37° C. and then diluted and allowed to grow again for 3-4 hours. Serial dilutions of peptide stocks in water (10 μl) were prepared using clear round-bottom polypropylene 96-well plates. Then 90 μl of bacteria in broth was added to give a final inoculum of 5×10^5 CFU/ml. The plates were then covered with porous tape to reduce evaporation and incubated for 20-24 hours at 37° C. The MIC was the minimum peptide concentration at which no visible bacterial growth was observed.

[3] = test system: Acinetobacter baumannii (A. baumannii); format: cell-based; conditions: microbroth dilution, 20-24 hours at 37° C.
Experimental: as §1

[4] = test system: Klebsiella pneumoniae (K. pneumoniae); format: cell-based; conditions: microbroth dilution, 20-24 hours at 37° C.
Experimental: as §1

[5] = test system: Escherichia coli (E. coli); format: cell-based; conditions: microbroth dilution, 20-24 hours at 37° C.
Experimental: as §1

[6] = test system: Staphylococcus aureus (S. aureus); format: cell-based; conditions: microbroth dilution, 20-24 hours at 37° C.
Experimental: as §1

[7] = 90 minute cytotoxicity assay (LDH release), renal toxicity; format: cell-based
Method in brief: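 Released lactate dehydrogenase, read as absorbance at 490 nm after 10 min with assay reagent, serves as read-out. Renal proximal tubule epithelial cells received peptide serial dilutions or vehicle for 90 min at 37° C after overnight plating.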

[8] = 48 hours of incubation, CellTiter-Glo, read-out: Inhibitory Concentration at 50% Cytotoxicity (IC50) Human Liver Cells (HepG2)

Row | SMILES | IC50 [1, 8] [µg/mL] | Minimum Inhibitory Concentration (MIC) P. aeruginosa [2] [µg/mL] | Minimum Inhibitory Concentration (MIC) A. baumannii [3] [µg/mL] | Minimum Inhibitory Concentration (MIC) K. pneumoniae [4] [µg/mL] | Minimum Inhibitory Concentration (MIC) E. coli [5] [µg/mL] | Minimum Inhibitory Concentration (MIC) S. aureus [6] [µg/mL] | IC50 [7] [µg/mL] | IC50 [1] [µg/mL]
1 | CC[C@H](C)[C@H](NC(=O)CN)C(=O)N[C@@H](Cc1ccccc1)C(=O)N[C@@H](CO)C(=O)N[C@@H](CCCCN)C(=O)N[C@H]1CSCc2ccc3cc(ccc3c2)CSC[C@@H](C(=O)N[C@@H](CC(C)C)C(=O)N[C@@H](CC(C)C)C(=O)N[C@H](C(=O)N[C@@H](CO)C(=O)NCC(=O)N[C@@H](CC(C)C)C(=O)N[C@@H](CCCCN)C(=O)NCC(N)=O)[C@@H](C)CC)NC(=O)[C@H](CCCCN)NC(=O)[C@H]([C@@H](C)CC)NC(=O)[C@H](CCCCN)NC(=O)[C@H](CCCCN)NC(=O)CNC(=O)[C@H](C)NC1=O [compound 64] (H-GIFSKCAGKKIKCLLISGLKG-NH2; linker 6-13 via Naphthalene(2,6-diCH2)) | 53 (≈ 22.9 µM) | >64 | 8 | 16 | 8 | >64 |  | 
2 | CC[C@H](C)[C@H](NC(=O)CN)C(=O)N[C@@H](Cc1ccccc1)C(=O)N[C@@H](CO)C(=O)N[C@@H](CCCCN)C(=O)N[C@@H](CC(C)C)C(=O)N[C@@H](C)C(=O)N[C@H]1CSCc2ccc(nc2)-c2ccc(cn2)CSC[C@@H](C(=O)N[C@H](C(=O)N[C@@H](CO)C(=O)NCC(=O)N[C@@H](CC(C)C)C(=O)N[C@@H](CCCCN)C(=O)NCC(N)=O)[C@@H](C)CC)NC(=O)[C@H](CC(C)C)NC(=O)[C@H](CC(N)=O)NC(=O)[C@H](CCCCN)NC(=O)[C@H]([C@@H](C)CC)NC(=O)[C@H](CCCCN)NC(=O)[C@H](CCCCN)NC1=O [compound 66] (H-GIFSKLACKKIKNLCISGLKG-NH2; linker 8-15 via 2,2'Bipyridine(5,5'-diCH2)) | 75 (≈ 31.2 µM) | 32 | 4 | 16 | 8 | >64 |  | 
3 | CC[C@H](C)[C@H](NC(=O)CN)C(=O)N[C@@H](Cc1ccccc1)C(=O)N[C@@H](CO)C(=O)N[C@@H](CCCCN)C(=O)N[C@@H](CC(C)C)C(=O)N[C@H]1CSCc2cccc(c2)CSC[C@@H](C(=O)N[C@@H](CCCCN)C(=O)N[C@@H](CC(N)=O)C(=O)N[C@@H](CC(C)C)C(=O)N[C@@H](CC(C)C)C(=O)N[C@H](C(=O)N[C@@H](CO)C(=O)NCC(=O)N[C@@H](CC(C)C)C(=O)N[C@@H](CCCCN)C(=O)NCC(=O)NCC(=O)NCC(=O)N[C@@H](CCCCN)C(=O)O)[C@@H](C)CC)NC(=O)[C@H](CCCCN)NC(=O)[C@H](CCCCN)NC(=O)CNC1=O [compound 94] (H-GIFSKLCGKKCKNLLISGLKGGGK-OH; linker 7-11 via mXylylene; N-terminus assumed) |  |  |  |  |  |  | 168 (≈ 65.8 µM) | > 200
4 | CC[C@H](C)[C@H](NC(=O)CN)C(=O)N[C@@H](Cc1ccccc1)C(=O)N[C@@H](CO)C(=O)N[C@@H](CCCCN)C(=O)N[C@@H](CC(C)C)C(=O)N[C@H]1CSCc2cccc(c2)CSC[C@@H](C(=O)N[C@@H](CCCCN)C(=O)N[C@@H](CC(N)=O)C(=O)N[C@@H](CC(C)C)C(=O)N[C@@H](CC(C)C)C(=O)N[C@H](C(=O)N[C@@H](CO)C(=O)NCC(=O)N[C@@H](CC(C)C)C(=O)N[C@@H](CCCCN)C(=O)NCC(=O)N[C@@H](C)C(=O)NCC(=O)O)[C@@H](C)CC)NC(=O)[C@H](CCCCN)NC(=O)[C@H](CCCCN)NC(=O)CNC1=O [compound 95] (H-GIFSKLCGKKCKNLLISGLKGAG-OH; linker 7-11 via mXylylene; N-terminus assumed) |  |  |  |  |  |  | 167 (≈ 68.5 µM) | > 200
5 | CC[C@H](C)[C@H](NC(=O)CN)C(=O)N[C@@H](Cc1ccccc1)C(=O)N[C@@H](CO)C(=O)N[C@@H](CCCCN)C(=O)N[C@@H](CC(C)C)C(=O)N[C@H]1CSCc2cccc(c2)CSC[C@@H](C(=O)N[C@@H](CCCCN)C(=O)N[C@@H](CC(N)=O)C(=O)N[C@@H](CC(C)C)C(=O)N[C@@H](CC(C)C)C(=O)N[C@H](C(=O)N[C@@H](CO)C(=O)NCC(=O)N[C@@H](CC(C)C)C(=O)N[C@@H](CCCCN)C(=O)NCC(=O)N[C@@H](C)C(=O)N[C@@H](CCCCN)C(=O)O)[C@@H](C)CC)NC(=O)[C@H](CCCCN)NC(=O)[C@H](CCCCN)NC(=O)CNC1=O [compound 96] (H-GIFSKLCGKKCKNLLISGLKGAK-OH; linker 7-11 via mXylylene; N-terminus assumed) |  |  |  |  |  |  | 153 (≈ 61 µM) | 193 (≈ 76.9 µM)
6 | CC[C@H](C)[C@H](NC(=O)CN)C(=O)N[C@@H](Cc1ccccc1)C(=O)N[C@@H](CO)C(=O)N[C@@H](CCCCN)C(=O)N[C@@H](CC(C)C)C(=O)N[C@H]1CSCc2cccc(c2)CSC[C@@H](C(=O)N[C@@H](CCCCN)C(=O)N[C@@H](CC(N)=O)C(=O)N[C@@H](CC(C)C)C(=O)N[C@@H](CC(C)C)C(=O)N[C@H](C(=O)N[C@@H](CO)C(=O)NCC(=O)N[C@@H](CC(C)C)C(=O)N[C@@H](CCCCN)C(=O)NCC(=O)O)[C@@H](C)CC)NC(=O)[C@H](CCCCN)NC(=O)[C@H](CCCCN)NC(=O)[C@H](C)NC1=O [compound 97] (H-GIFSKLCAKKCKNLLISGLKG-OH; linker 7-11 via mXylylene; N-terminus assumed) |  |  |  |  |  |  | > 200 | > 200
7 | CC[C@H](C)[C@H](NC(=O)CN)C(=O)N[C@@H](Cc1ccccc1)C(=O)N[C@@H](CO)C(=O)N[C@@H](CCCCN)C(=O)N[C@@H](CC(C)C)C(=O)N[C@H]1CSCc2cccc(c2)CSC[C@@H](C(=O)N[C@@H](CCCCN)C(=O)N[C@@H](CC(N)=O)C(=O)N[C@@H](CC(C)C)C(=O)N[C@@H](CC(C)C)C(=O)N[C@H](C(=O)N[C@@H](CO)C(=O)N[C@@H](C)C(=O)N[C@@H](CC(C)C)C(=O)N[C@@H](CCCCN)C(=O)NCC(=O)O)[C@@H](C)CC)NC(=O)[C@H](CCCCN)NC(=O)[C@H](CCCCN)NC(=O)CNC1=O [compound 98] (H-GIFSKLCGKKCKNLLISALKG-OH; linker 7-11 via mXylylene; N-terminus assumed) |  |  |  |  |  |  | 28 (≈ 12 µM) | 50 (≈ 21.5 µM)
8 | CC[C@H](C)[C@H](NC(=O)CN)C(=O)N[C@@H](Cc1ccccc1)C(=O)N[C@@H](CO)C(=O)N[C@@H](CCCCN)C(=O)N[C@@H](CC(C)C)C(=O)N[C@H]1CSCc2cccc(c2)CSC[C@@H](C(=O)N[C@@H](CCCCN)C(=O)N[C@@H](CC(N)=O)C(=O)N[C@@H](CC(C)C)C(=O)N[C@@H](CC(C)C)C(=O)N[C@H](C(=O)N[C@@H](CO)C(=O)N[C@@H](C)C(=O)N[C@@H](CC(C)C)C(=O)N[C@@H](CCCCN)C(=O)NCC(=O)O)[C@@H](C)CC)NC(=O)[C@H](CCCCN)NC(=O)[C@H](CCCCN)NC(=O)[C@H](C)NC1=O [compound 99] (H-GIFSKLCAKKCKNLLISALKG-OH; linker 7-11 via mXylylene; N-terminus assumed) |  |  |  |  |  |  | 45 (≈ 19.2 µM) | 59 (≈ 25.2 µM)

Source: patent US20240391965A1, “STAPLED ANTIMICROBIAL PEPTIDES (STAMPS) AND USES THEREOF” (Lytica Therapeutics, Inc., priority 2021, published 2024)
